Values of other authors as cited in patent publication US20090324709A1, “LIPOSOMAL FORMULATIONS” (Italfarmaco, S.A., priority 2004, published 2009).
Like-named read-outs stand apart in the source and are kept apart here.

Conditions: for retention of acyclovir: neutral egg PC:cholesterol 15:1 DRV liposomes; for release of 5-FU: DSPC liposomes, six hours after preparation; for retention of iododeoxyuridine: egg PC:cholesterol 15:1 DRV liposomes

Q: For `Nc1nc2c(ncn2COCCO)c(=O)[nH]1` [acyclovir], which retention of acyclovir (24 hours at 37° C.) is on record?
A: 48%

Q: What about the retention of acyclovir (14 days at 4° C.) of the same molecule?
A: 44%

Q: Which retention of floxuridine (MLV SM:CHOL:DCP 4.8:2.8:1, 40 hours at 25° C.) does the source give for `O=c1[nH]c(=O)n([C@H]2C[C@H](O)[C@@H](CO)O2)cc1F` [floxuridine] here?
A: 70%

Q: Which results are given for `O=c1[nH]cc(F)c(=O)[nH]1` [Example 5-FU, 5-fluorouracil]?
A: release of 5-FU (25° C.): 10%; release of 5-FU (37° C.): 50%; 5-FU that escapes (LUV DSPC liposomes, 60 minutes): more than 75%; escape of 5-FU (LUV SPC, SPC:Cholesterol (1:1), SPC:Cholate (84:16), in saturated 5-FU solution, after 50 minutes): more than 50%; release of the drug on eliminating the pH gradient (LUV liposomes actively charged through pH gradient (U.S. Pat. No. 6,083,530)): immediate; release of initially encapsulated 5-FU (SPC:Cholate liposomes in solution without 5-FU, after 5 minutes): 80%; 5-FU initially encapsulated still inside the liposomes (multilamellar liposomes of sphingomyelin, cholesterol and dicetyl-phosphate, 40 hours at 25° C.): 20%; 5-FU remaining inside (type A liposome soy lecithin:cholesterol hemisuccinate:cholesterol (10:1:4), 28 days at room temperature): 10%; 5-FU released (type B liposomes DPPC:cholesterol hemisuccinate:cholesterol (10:1:4), 42 days at room temperature): 40%

Q: What does the source list for `O=c1[nH]c(=O)n([C@H]2C[C@H](O)[C@@H](CO)O2)cc1I` [iododeoxyuridine]?
A: retention of iododeoxyuridine (24 hours at 4° C.): 50%; retention of iododeoxyuridine (one hour at 37° C.): 20%

Q: For `CN(Cc1cnc2nc(N)nc(N)c2n1)c1ccc(C(=O)N[C@@H](CCC(=O)O)C(=O)O)cc1` [methotrexate], which methotrexate retention (EPC liposomes, MLV and REV, 30 days at 4° C.) is on record?
A: 70%

Q: And the methotrexate retention (EPC liposomes, MLV and REV, 30 days at 25° C.)?
A: 40%

Q: And the methotrexate retention (EPC liposomes, MLV and REV, 30 days at 37° C.)?
A: < 10%

Q: And the methotrexate retention (MLV HSPC:CHOL and HSPC:CHOL:DCP, 8 hours at 37° C.)?
A: 35%
